Data as given in patent US7807673B2, “2-pyrimidinyl pyrazolopyridine ErbB kinase inhibitors” (GlaxoSmithKline LLC, priority 2005, dated 2010).

Assays:
[1] = test system: BT474 and HN5 tumor cell lines; assay: Celltiter Glo growth inhibition assay (cellular Method B); format: cell-based; details: Homo sapiens, BT-474, 72 h; Table 2, Method B Celltiter Glo, 3 days; class over BT474 and HN5;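 also: class counts the more potent of the two cell lines (BT474 or HN5)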
Protocol: (§1) Human breast tumor cells (BT474) were cultured in RPMI, (Invitrogen, 22400) containing 10% fetal bovine serum (FBS). Human head and neck tumor cells (HN5) were cultured in low glucose DMEM (Invitrogen, 12320) containing 10% FBS. Human colon tumor cells (Colo205) were cultured in DMEM (Invitrogen, 10564) containing 10% FBS. All cell lines were maintained at 37° C. in a humidified 5% CO2, 95% air incubator. Cells were harvested using trypsin/EDTA, counted using a haemocytometer, and plated in 30 microliters of the appropriate media described above, at the following densities, in a half area, black-walled, 96-well tissue culture plate (Corning 3882): BT474 3,000 cells/well, HN5 500 cells/well and Colo205 cells, 3,000 cells/well. The next day, compounds were diluted in DMEM containing 100 mg/ml gentamicin, from 10 mM stock solutions in DMSO. 30 microliters/well of these dilutions were added to the 30 microliters/well of media currently on the cell plates. Medium containing 0.6% DMSO was added to control wells. The final concentration of DMSO in all wells was 0.3%. Cells were incubated at 37° C., 5% CO2 for 3 days. Cell biomass was estimated using Celltiter Glo (Promega G7571). Briefly, plates were removed from the incubator and allowed to equilibrate to rt for 30 minutes. 60 microliters of Celltiter Glo reagent were added to each well of the treated cells and plates were shaken on an orbital plate shaker for 2 min. Plates were incubated without shaking for 30 more min and read in a luminometer with an integration time of 0.5 seconds per well. Percent inhibition of cell growth was calculated relative to vehicle treated control wells. Concentration of compound that inhibits 50% of vehicle control cell growth (IC50) was interpolated using nonlinear regression (Levenberg-Marquardt) and the equation, y=Vmax*(1−(x/(K+x)))+Y2, where “K” was equal to the IC50.

Colo205 tumor cell lines = assay: as above; format: cell-based; details: Homo sapiens, COLO 205, 72 h, Table 3, Method B Celltiter Glo, 3 days
Protocol: as §1

ErbB2 or EGFR = target: T1, ErbB2 or EGFR; assay: ErbB enzyme substrate phosphorylation assay (HTRF), Method B (enzyme pre-incubated with compound 1 hour); format: biochemical; details: Table 1, enzyme Method B: enzyme mix incubated with compound 1 hour at 20° C., reaction started with substrate mix; class over ErbB2 or EGFR
T1 construct: enzymes purified from a baculovirus expression system
Protocol: Compounds of the present invention were tested for EGFR, ErbB-2, and ErbB-4 protein tyrosine kinase inhibitory activity in substrate phosphorylation assays using enzymes purified from a baculovirus expression system. Reagent production was conducted essentially as described in Brignola, P. S., et al, (2002) J. Biol. Chem. 277(2): 1576-1585.
The method measures the ability of the isolated enzyme to catalyse the transfer of the gamma-phosphate from ATP onto the tyrosine residue of a biotinylated synthetic peptide referenced “Peptide C” in Brignola, P. S., et al, (2002) J. Biol. Chem. 277(2):1576-1585. The extent of tyrosine phosphorylation was measured using an anti-phosphotyrosine antibody, and quantified by homogenous time-resolved fluorescence (HTRF).
Reactions were performed in black 384-well polystyrene flat-bottom plates in a final volume of 20 μl. Assays were performed by adding 10 μl of each of the following solutions, substrate Mix and enzyme mix: The Substrate mix contained 100 mM 3-[N-morpholino]propanesulfonic acid (MOPS) (pH 7.5), 2 mM MnCl2, 20 μM ATP, 0.01% Tween-20, 0.1 mg/mL (BSA), 0.8 uM peptide substrate, and 1 mM dithiothreitol. The enzyme mix contained 100 mM MOPS (pH7.5); 0.01% Tween-20; 0.1 mg/mL BSA, and either 0.8 nM EGFR, 10 nM ErbB2, or 1 nM ErbB4
During the course of these studies, two separate methods have been used to measure the potency of compounds. In Method A, the substrate mix was added to the compound plates first, then the reaction was started by adding the enzyme mix. In Method B, the enzyme mix was added to the compound plates and the plates were incubated at 20° C. for 1 hour. The reactions were then started by adding the substrate mix.
After initiating the reaction with either method describe above, the reactions were allowed to proceed for 90 minutes at 20° C. The reactions were then terminated by the addition of 20 μl 100 mM EDTA to each well. 40 μl/well of HTRF detection mix were added to the assay plates. The final concentrations of the detection reagents were: 100 mM HEPES (pH7.5), 0.1 mg/mL BSA, 15 nM streptavidin-labeled allophycocyanin (PerkinElmer), and 1 nM europium-labeled anti-phosphotyrosine antibody (PerkinElmer). Assay plates were left unsealed and were counted in a Wallac Multilabel Counter 1420 (PerkinElmer).
Compounds under analysis were dissolved in Me2SO to 1.0 mM and serially diluted 1 to 3 with Me2SO through twelve dilutions. 1 μl of each concentration was transferred to the corresponding well of an assay plate. This creates a final compound concentration range from 0.00027 to 47.6 μM.
The data for dose responses were plotted as % Inhibition calculated with the data reduction formula 100*(1−(U1−C2)/(C1−C2)) versus concentration of compound where U is the unknown value, C1 is the average control value obtained for 4.76% DMSO, and C2 is the average control value obtained for 0.035 M EDTA. Data were fitted with a curve described by: y=((Vmax*x)/(K+x))+Y2 where Vmax is the upper asymptote, Y2 is the Y intercept, and K is the IC50. The results for each compound were recorded as pIC50s, calculated as follows: pIC50=−Log 10(K)

Structure (SMILES) | IC50 [1] | IC50 (Colo205 tumor cell lines) | Activity (Method) (ErbB2 or EGFR)
CN(C)Cc1cccc(Nc2nccc(-c3c(-c4ccc(F)c(NC(=O)Cc5cccs5)c4)nn4ccccc34)n2)c1 [Example 36, N-(5-{3-[2-({3-[(dimethylamino)methyl]phenyl}amino)-4-pyrimidinyl]pyrazolo[1,5-a]pyridin-2-yl}-2-fluorophenyl)-2-(2-thienyl)acetamide] | 100 to 1000 nM | 100 to 1000 nM | ++ (B) (at least one pIC50 measurement greater than 6 against either ErbB2 or EGFR but no measurement greater than pIC50 of 7)
CN(C)C1Cc2ccc(Nc3nccc(-c4c(-c5ccc(F)c(NC(=O)Cc6cccs6)c5)nn5ccccc45)n3)cc2C1 (stereo not drawn) [Example 37, N-{5-[3-(2-{[2-(dimethylamino)-2,3-dihydro-1H-inden-5-yl]amino}-4-pyrimidinyl)pyrazolo[1,5-a]pyridin-2-yl]-2-fluorophenyl}-2-(2-thienyl)acetamide] | < 100 nM | 100 to 1000 nM | +++ (B) (at least one pIC50 measurement of greater than 7 against either ErbB2 or EGFR)
CN(C)CCOc1cccc(Nc2nccc(-c3c(-c4ccc(F)c(NC(=O)Cc5cccs5)c4)nn4ccccc34)n2)c1 [Example 38, N-[5-(3-{2-[(3-{[2-(dimethylamino)ethyl]oxy}phenyl)amino]-4-pyrimidinyl}pyrazolo[1,5-a]pyridin-2-yl)-2-fluorophenyl]-2-(2-thienyl)acetamide] | 100 to 1000 nM | 100 to 1000 nM | ++ (B) (at least one pIC50 measurement greater than 6 against either ErbB2 or EGFR but no measurement greater than pIC50 of 7)
CN(C)CCNCc1cccc(Nc2nccc(-c3c(-c4cccc(NC(=O)Cc5cccs5)c4)nn4ccccc34)n2)c1 [Example 40, N-{3-[3-(2-{[3-({[2-(dimethylamino)ethyl]amino}methyl)phenyl]-amino}-4-pyrimidinyl)pyrazolo[1,5-a]pyridin-2-yl]phenyl}-2-(2-thienyl)acetamide] | 100 to 1000 nM | 100 to 1000 nM | +++ (B) (at least one pIC50 measurement of greater than 7 against either ErbB2 or EGFR)
CS(=O)(=O)CCNCc1cccc(Nc2nccc(-c3c(-c4cccc(NC(=O)Cc5cccs5)c4)nn4ccccc34)n2)c1 [Example 41, N-{3-[3-(2-{[3-({[2-(Methylsulfonyl)ethyl]amino}methyl)phenyl]-amino}-4-pyrimidinyl)pyrazolo[1,5-a]pyridin-2-yl]phenyl}-2-(2-thienyl)acetamide] | 100 to 1000 nM | 100 to 1000 nM | +++ (B) (at least one pIC50 measurement of greater than 7 against either ErbB2 or EGFR)
NCc1cccc(Nc2nccc(-c3c(-c4cccc(NC(=O)Cc5cccs5)c4)nn4ccccc34)n2)c1 [Example 42, N-{3-[3-(2-{[3-(Aminomethyl)phenyl]amino}-4-pyrimidinyl)pyrazolo[1,5-a]pyridin-2-yl]phenyl}-2-(2-thienyl)acetamide] | 100 to 1000 nM | > 1000 nM | +++ (B) (at least one pIC50 measurement of greater than 7 against either ErbB2 or EGFR)
CN1CCC(N(C)CCOc2cc(Nc3nccc(-c4c(-c5cccc(NC(=O)Cc6cccs6)c5)nn5ccccc45)n3)ccc2Cl)C1 (stereo not drawn) [Example 46, N-{3-[3-(2-{[4-Chloro-3-({2-[methyl(1-methyl-3-pyrrolidinyl)amino]-ethyl}oxy)phenyl]amino}-4-pyrimidinyl)pyrazolo[1,5-a]pyridin-2-yl]phenyl}-2-(2-thienyl)acetamide] | > 1000 nM | > 1000 nM | +++ (B) (at least one pIC50 measurement of greater than 7 against either ErbB2 or EGFR)
COc1ccc(Nc2nccc(-c3c(-c4cccc(NC(=O)Cc5cccs5)c4)nn4ccccc34)n2)cc1N1CCN(CCS(C)(=O)=O)CC1 [Example 47, N-[3-(3-{2-[(4-(Methyloxy)-3-{4-[2-(methylsulfonyl)ethyl]-1-piperazinyl}phenyl)amino]-4-pyrimidinyl}pyrazolo[1,5-a]pyridin-2-yl)phenyl]-2-(2-thienyl)acetamide] | 100 to 1000 nM | < 100 nM | +++ (B) (at least one pIC50 measurement of greater than 7 against either ErbB2 or EGFR)
COc1ccc(-c2nn3ccccc3c2-c2ccnc(Nc3ccc4c(c3)CC(N(C)C)C4)n2)cc1NC(=O)Cc1cccs1 (stereo not drawn) [Example 48, N-{5-[3-(2-{[2-(Dimethylamino)-2,3-dihydro-1H-inden-5-yl]amino}pyrimidin-4-yl)pyrazolo[1,5-a]pyridin-2-yl]-2-methoxyphenyl}-2-(2-thienyl)acetamide] | 100 to 1000 nM | 100 to 1000 nM | + (B) (no pIC50 measurement greater than 6 against either ErbB2 or EGFR)
COc1ccc(-c2nn3ccccc3c2-c2ccnc(Nc3ccc4c(c3)CN(C)CC4)n2)cc1NC(=O)Cc1cccs1 [Example 49, N-[2-Methoxy-5-(3-{2-[(2-methyl-1,2,3,4-tetrahydroisoquinolin-7-yl)amino]pyrimidin-4-yl}pyrazolo[1,5-a]pyridin-2-yl)phenyl]-2-(2-thienyl)acetamide] | > 1000 nM | 100 to 1000 nM | + (B) (no pIC50 measurement greater than 6 against either ErbB2 or EGFR)
CN1CCc2ccc(Nc3ncc(F)c(-c4c(-c5cccc(NC(=O)c6c(F)cccc6F)c5)nn5ccccc45)n3)cc2C1 [Example 51, 2,6-Difluoro-N-[3-(3-{5-fluoro-2-[(2-methyl-1,2,3,4-tetrahydro-7-isoquinolinyl)amino]-4-pyrimidinyl}pyrazolo[1,5-a]pyridin-2-yl)phenyl]benzamide] | 100 to 1000 nM | 100 to 1000 nM | +++ (B) (at least one pIC50 measurement of greater than 7 against either ErbB2 or EGFR)
Cc1ccc(-c2nn3ccccc3c2-c2ccnc(Nc3cccc(CN4CCCC4)c3)n2)cc1NC(=O)Cc1cccs1 [Example 56, N-{2-Methyl-5-[3-(2-{[3-(1-pyrrolidinylmethyl)phenyl]amino}-4-pyrimidinyl)pyrazolo[1,5-a]pyridin-2-yl]phenyl}-2-(2-thienyl)acetamide] | > 1000 nM | > 1000 nM | ++ (B) (at least one pIC50 measurement greater than 6 against either ErbB2 or EGFR but no measurement greater than pIC50 of 7)
